Laboratory results from patent EP4745137A1 (Gluetacs Therapeutics (Shanghai) Co., Ltd., priority 2023, dated 2025).

Columns and labels:
[1] = biological target: T1, human Cereblon WT GST-tagged protein (Homo sapiens, UniProt Q96SW2); experiment: CRBN-binding affinity by HTRF (CEREBLON BINDING kit); conditions: HTRF inhibitory activity, CEREBLON BINDING kit; read-out: HTRF IC50
T1 construct: purchased CISBIO 64BDCRBNPEH

[2] = biological target: T2, IKZF1 (Homo sapiens, UniProt Q13422+Q96SW2); experiment: Western-blot assay of substrate protein degradation in hPBMCs, IKZF1; format: cell-based; conditions: 24 hours of compound treatment, compounds tested at 50 nM and 500 nM (concentration of the table not stated)
T2 construct: endogenous in cells; host or cells: hPBMCs (Milecell Biotechnologies)

[3] = biological target: T3, IKZF2 (Homo sapiens, UniProt Q96SW2+Q9UKS7); experiment: Western-blot assay of substrate protein degradation in hPBMCs, IKZF2; format: cell-based; conditions: 24 hours of compound treatment, compounds tested at 50 nM and 500 nM (concentration of the table not stated)
T3 construct: endogenous in cells; host or cells: hPBMCs (Milecell Biotechnologies)
T3 sequence (Q9UKS7 whole entry): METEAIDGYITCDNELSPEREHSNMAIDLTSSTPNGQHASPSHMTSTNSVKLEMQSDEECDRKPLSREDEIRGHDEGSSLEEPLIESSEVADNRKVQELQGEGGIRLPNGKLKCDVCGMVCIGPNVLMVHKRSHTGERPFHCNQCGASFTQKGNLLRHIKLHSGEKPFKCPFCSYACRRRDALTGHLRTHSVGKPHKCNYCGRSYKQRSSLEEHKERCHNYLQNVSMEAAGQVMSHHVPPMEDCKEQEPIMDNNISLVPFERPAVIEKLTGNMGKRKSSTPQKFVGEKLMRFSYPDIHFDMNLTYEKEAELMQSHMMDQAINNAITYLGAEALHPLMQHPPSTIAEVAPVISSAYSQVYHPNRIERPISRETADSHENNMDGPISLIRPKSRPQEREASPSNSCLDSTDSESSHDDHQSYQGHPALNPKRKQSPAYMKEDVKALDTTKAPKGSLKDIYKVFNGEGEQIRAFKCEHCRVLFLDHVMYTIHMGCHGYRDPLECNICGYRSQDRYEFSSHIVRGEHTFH
T3 sequence (Q96SW2 whole entry): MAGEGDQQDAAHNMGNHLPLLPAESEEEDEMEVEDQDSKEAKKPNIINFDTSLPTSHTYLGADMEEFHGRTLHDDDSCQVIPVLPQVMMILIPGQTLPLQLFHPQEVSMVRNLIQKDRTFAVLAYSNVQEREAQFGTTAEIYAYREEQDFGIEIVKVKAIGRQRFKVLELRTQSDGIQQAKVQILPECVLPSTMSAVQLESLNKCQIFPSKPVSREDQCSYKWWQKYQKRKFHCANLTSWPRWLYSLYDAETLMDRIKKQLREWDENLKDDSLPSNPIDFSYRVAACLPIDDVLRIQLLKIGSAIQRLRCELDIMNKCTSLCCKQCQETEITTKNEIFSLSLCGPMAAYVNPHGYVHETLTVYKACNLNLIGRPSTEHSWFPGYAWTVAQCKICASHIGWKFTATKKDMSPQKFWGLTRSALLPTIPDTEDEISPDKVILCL
T3 sequence (Q16531 whole entry partner): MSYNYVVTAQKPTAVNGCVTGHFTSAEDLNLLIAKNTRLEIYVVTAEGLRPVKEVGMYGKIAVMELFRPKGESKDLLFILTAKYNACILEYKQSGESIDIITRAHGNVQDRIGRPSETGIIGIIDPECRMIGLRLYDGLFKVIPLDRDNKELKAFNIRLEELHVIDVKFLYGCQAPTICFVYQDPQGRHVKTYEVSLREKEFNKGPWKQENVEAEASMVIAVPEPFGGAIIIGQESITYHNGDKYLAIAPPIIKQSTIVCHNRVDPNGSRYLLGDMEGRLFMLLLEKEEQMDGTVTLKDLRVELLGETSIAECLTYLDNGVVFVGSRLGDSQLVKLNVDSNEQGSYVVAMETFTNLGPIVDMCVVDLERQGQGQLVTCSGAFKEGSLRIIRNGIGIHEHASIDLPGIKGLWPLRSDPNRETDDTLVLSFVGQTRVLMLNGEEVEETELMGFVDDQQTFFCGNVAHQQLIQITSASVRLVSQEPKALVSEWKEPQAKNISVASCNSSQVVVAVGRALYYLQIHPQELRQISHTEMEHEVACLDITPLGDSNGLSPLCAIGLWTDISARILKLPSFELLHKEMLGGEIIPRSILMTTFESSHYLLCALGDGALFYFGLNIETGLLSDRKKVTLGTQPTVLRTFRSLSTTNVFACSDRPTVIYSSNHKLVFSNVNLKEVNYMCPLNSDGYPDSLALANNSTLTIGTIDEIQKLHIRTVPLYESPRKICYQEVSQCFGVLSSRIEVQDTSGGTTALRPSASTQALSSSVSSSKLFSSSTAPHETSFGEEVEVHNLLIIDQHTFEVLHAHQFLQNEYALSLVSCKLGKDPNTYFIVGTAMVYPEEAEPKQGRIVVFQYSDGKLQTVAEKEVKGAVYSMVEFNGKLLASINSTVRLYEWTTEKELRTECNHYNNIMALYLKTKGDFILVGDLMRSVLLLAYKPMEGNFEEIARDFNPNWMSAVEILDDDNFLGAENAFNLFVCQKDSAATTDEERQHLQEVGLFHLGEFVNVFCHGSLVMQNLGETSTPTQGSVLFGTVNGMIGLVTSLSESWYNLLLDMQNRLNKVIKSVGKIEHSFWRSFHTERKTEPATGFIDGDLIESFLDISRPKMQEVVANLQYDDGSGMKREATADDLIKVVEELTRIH

[4] = biological target: T4, IKZF3 (Homo sapiens, UniProt Q96SW2+Q9UKT9); experiment: Western-blot assay of substrate protein degradation in hPBMCs, IKZF3; format: cell-based; conditions: 24 hours of compound treatment, compounds tested at 50 nM and 500 nM (concentration of the table not stated)
T4 construct: endogenous in cells; host or cells: hPBMCs (Milecell Biotechnologies)
T4 sequence (Q9UKT9 whole entry): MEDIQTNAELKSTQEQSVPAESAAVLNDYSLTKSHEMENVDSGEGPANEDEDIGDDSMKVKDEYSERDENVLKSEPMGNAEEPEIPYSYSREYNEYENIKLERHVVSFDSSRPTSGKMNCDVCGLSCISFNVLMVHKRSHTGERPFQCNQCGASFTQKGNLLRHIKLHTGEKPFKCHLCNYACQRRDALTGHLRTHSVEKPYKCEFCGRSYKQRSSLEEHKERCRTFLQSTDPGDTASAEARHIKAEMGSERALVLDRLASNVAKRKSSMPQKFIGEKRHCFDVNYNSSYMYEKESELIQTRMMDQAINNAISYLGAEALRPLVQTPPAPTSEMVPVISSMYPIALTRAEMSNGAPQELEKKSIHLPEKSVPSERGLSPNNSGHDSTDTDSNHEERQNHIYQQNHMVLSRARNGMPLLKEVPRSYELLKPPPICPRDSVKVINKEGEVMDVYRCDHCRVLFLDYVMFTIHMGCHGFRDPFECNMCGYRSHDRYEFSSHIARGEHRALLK
T4 sequence (Q96SW2 whole entry): as the sequence (Q96SW2 whole entry) above
T4 sequence (Q16531 whole entry partner): as the sequence (Q16531 whole entry partner) above

[5] = biological target: T5, CK1α (Homo sapiens, UniProt P48729+Q96SW2); experiment: Western-blot assay of substrate protein degradation in hPBMCs, CK1α; format: cell-based; conditions: 24 hours of compound treatment, compounds tested at 50 nM and 500 nM (concentration of the table not stated)
T5 construct: endogenous in cells; host or cells: hPBMCs (Milecell Biotechnologies)
T5 sequence (P48729 whole entry): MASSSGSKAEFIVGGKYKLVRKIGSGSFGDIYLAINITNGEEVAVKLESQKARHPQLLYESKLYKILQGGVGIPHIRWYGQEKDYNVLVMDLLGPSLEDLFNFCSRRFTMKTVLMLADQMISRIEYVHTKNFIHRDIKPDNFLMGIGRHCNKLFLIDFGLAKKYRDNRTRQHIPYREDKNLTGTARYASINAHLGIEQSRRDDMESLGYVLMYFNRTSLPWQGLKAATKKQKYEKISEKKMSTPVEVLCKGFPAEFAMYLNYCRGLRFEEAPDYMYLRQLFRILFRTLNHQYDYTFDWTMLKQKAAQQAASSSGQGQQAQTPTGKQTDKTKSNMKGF
T5 sequence (Q96SW2 whole entry): as the sequence (Q96SW2 whole entry) above
T5 sequence (Q16531 whole entry partner): as the sequence (Q16531 whole entry partner) above

[6] = biological target: T6, GSPT1 (Homo sapiens, UniProt P15170+Q96SW2); experiment: Western-blot assay of substrate protein degradation in hPBMCs, GSPT1; format: cell-based; conditions: 24 hours of compound treatment, compounds tested at 50 nM and 500 nM (concentration of the table not stated)
T6 construct: endogenous in cells; host or cells: hPBMCs (Milecell Biotechnologies)
T6 sequence (P15170 whole entry): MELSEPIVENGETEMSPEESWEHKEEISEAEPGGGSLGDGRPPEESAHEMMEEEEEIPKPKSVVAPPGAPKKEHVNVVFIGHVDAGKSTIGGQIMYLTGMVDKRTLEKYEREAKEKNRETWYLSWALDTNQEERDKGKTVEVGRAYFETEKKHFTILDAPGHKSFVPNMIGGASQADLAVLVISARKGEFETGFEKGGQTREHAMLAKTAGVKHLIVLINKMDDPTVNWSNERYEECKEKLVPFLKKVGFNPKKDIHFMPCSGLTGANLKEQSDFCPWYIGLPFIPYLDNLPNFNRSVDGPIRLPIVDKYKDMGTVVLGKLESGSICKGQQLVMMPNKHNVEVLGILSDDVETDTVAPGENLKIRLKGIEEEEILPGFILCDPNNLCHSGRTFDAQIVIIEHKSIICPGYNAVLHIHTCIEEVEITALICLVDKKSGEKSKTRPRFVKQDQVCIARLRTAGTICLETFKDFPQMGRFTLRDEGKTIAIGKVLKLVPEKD
T6 sequence (Q96SW2 whole entry): as the sequence (Q96SW2 whole entry) above
T6 sequence (Q16531 whole entry partner): as the sequence (Q16531 whole entry partner) above

[7] = biological target: T7, WEE1 (Homo sapiens, UniProt P30291+Q96SW2); experiment: Western-blot assay of substrate protein degradation in hPBMCs, WEE1; format: cell-based; conditions: 24 hours of compound treatment, compounds tested at 50 nM and 500 nM (concentration of the table not stated)
T7 construct: endogenous in cells; host or cells: hPBMCs (Milecell Biotechnologies)
T7 sequence (P30291 whole entry): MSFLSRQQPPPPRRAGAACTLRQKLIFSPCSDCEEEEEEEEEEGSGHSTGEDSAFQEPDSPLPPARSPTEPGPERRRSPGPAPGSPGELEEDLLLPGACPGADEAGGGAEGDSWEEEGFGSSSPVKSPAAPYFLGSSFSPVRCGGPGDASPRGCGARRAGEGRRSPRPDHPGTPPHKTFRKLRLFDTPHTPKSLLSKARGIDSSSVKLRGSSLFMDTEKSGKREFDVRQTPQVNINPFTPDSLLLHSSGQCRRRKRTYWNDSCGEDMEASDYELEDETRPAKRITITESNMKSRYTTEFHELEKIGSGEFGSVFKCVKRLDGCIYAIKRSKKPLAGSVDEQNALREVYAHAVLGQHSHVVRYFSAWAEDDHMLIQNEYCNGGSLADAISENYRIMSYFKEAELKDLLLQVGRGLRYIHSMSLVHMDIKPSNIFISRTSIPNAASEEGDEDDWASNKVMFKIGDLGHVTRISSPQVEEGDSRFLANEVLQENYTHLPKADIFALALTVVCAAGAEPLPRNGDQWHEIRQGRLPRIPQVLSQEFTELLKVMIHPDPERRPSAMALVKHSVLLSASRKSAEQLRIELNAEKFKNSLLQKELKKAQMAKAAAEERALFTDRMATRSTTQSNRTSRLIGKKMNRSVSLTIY
T7 sequence (Q96SW2 whole entry): as the sequence (Q96SW2 whole entry) above
T7 sequence (Q16531 whole entry partner): as the sequence (Q16531 whole entry partner) above

T1 sequence (Q96SW2 whole entry): as the sequence (Q96SW2 whole entry) above

Structure (SMILES)	IC50 [1] [nM]	IKZF 1 substrate protein remaining % [2]	IKZF2 substrate protein remaining % [3]	IKZF3 substrate protein remaining % [4]	CK1a substrate protein remaining % [5]	GSPT1 substrate protein remaining % [6]	Weel substrate protein remaining % [7]
O=C1CCC(N2Cc3cc(CN4CCC(c5ccnc6cc(F)ccc56)CC4)ccc3C2=O)C(=O)N1 (stereo not drawn) [GT-04648, 3-(5-((4-(7-fluoroquinolin-4-yl)piperidin-1-yl)methyl)-1-oxoisoindolin-2-yl)piperidine-2,6-dione]	500 to 1000	A (0% ≤ substrate protein remaining % ≤ 80%)	A (0% ≤ substrate protein remaining % ≤ 80%)	A (0% ≤ substrate protein remaining % ≤ 80%)	B (80%< substrate protein remaining %≤ 100%)	A (0% ≤ substrate protein remaining % ≤ 80%)	B (80%< substrate protein remaining %≤ 100%)
O=C1CCC(N2Cc3cc(CN4CCC(=C5CCOc6cc(F)ccc65)CC4)ccc3C2=O)C(=O)N1 (stereo not drawn) [GT-04649, 3-(5-((4-(7-fluorochroman-4-ylidene)piperidin-1-yl)methyl)-1-oxoisoindolin-2-yl)piperidine-2,6-dione]	< 500	A (0% ≤ substrate protein remaining % ≤ 80%)	A (0% ≤ substrate protein remaining % ≤ 80%)	A (0% ≤ substrate protein remaining % ≤ 80%)	B (80%< substrate protein remaining %≤ 100%)	A (0% ≤ substrate protein remaining % ≤ 80%)	B (80%< substrate protein remaining %≤ 100%)
O=C1CCC(N2Cc3cc(CN4CCC(c5cccc6cnccc56)CC4)ccc3C2=O)C(=O)N1 (stereo not drawn) [GT-04665, 3-(5-((4-(isoquinolin-5-yl)piperidin-1-yl)methyl)-1-oxoisoindolin-2-yl)piperidine-2,6-dione]	< 500	A (0% ≤ substrate protein remaining % ≤ 80%)	A (0% ≤ substrate protein remaining % ≤ 80%)	A (0% ≤ substrate protein remaining % ≤ 80%)	A (0% ≤ substrate protein remaining % ≤ 80%)	A (0% ≤ substrate protein remaining % ≤ 80%)	A (0% ≤ substrate protein remaining % ≤ 80%)
O=C1CCC(N2Cc3cc(CN4CCN(c5noc6cc(F)ccc56)CC4)ccc3C2=O)C(=O)N1 (stereo not drawn) [GT-04667, 3-(5-((4-(6-fluorobenzo[d]isoxazol-3-yl)piperazin-1-yl)methyl)-1-oxoisoindolin-2-yl)piperidine-2,6-dione]	500 to 1000	A (0% ≤ substrate protein remaining % ≤ 80%)	A (0% ≤ substrate protein remaining % ≤ 80%)	A (0% ≤ substrate protein remaining % ≤ 80%)	B (80%< substrate protein remaining %≤ 100%)	A (0% ≤ substrate protein remaining % ≤ 80%)	A (0% ≤ substrate protein remaining % ≤ 80%)
O=C1CCC(N2Cc3cc(CN4CC(N5CCc6cc(F)ccc65)C4)ccc3C2=O)C(=O)N1 (stereo not drawn) [GT-04677, 3-(5-((3-(5-fluoroindolin-1-yl)azetidin-1-yl)methyl)-1-oxoisoindolin-2-yl)piperidine-2,6-dione]	< 500	A (0% ≤ substrate protein remaining % ≤ 80%)	A (0% ≤ substrate protein remaining % ≤ 80%)	A (0% ≤ substrate protein remaining % ≤ 80%)	B (80%< substrate protein remaining %≤ 100%)	A (0% ≤ substrate protein remaining % ≤ 80%)	A (0% ≤ substrate protein remaining % ≤ 80%)
O=C1CCC(N2Cc3cc(CN4CCN(c5ncnc6sccc56)CC4)ccc3C2=O)C(=O)N1 (stereo not drawn) [GT-04678, 3-(1-oxo-5-((4-(thieno[2,3-d]pyrimidin-4-yl)piperazin-1-yl)methyl)isoindolin-2-yl)piperidine-2,6-dione]	500 to 1000	A (0% ≤ substrate protein remaining % ≤ 80%)	A (0% ≤ substrate protein remaining % ≤ 80%)	A (0% ≤ substrate protein remaining % ≤ 80%)	B (80%< substrate protein remaining %≤ 100%)	A (0% ≤ substrate protein remaining % ≤ 80%)	A (0% ≤ substrate protein remaining % ≤ 80%)
Cc1csc2ncnc(N3CCN(Cc4ccc5c(c4)CN(C4CCC(=O)NC4=O)C5=O)CC3)c12 (stereo not drawn) [GT-04679, 3-(5-((4-(5-methylthieno[2,3-d]pyrimidin-4-yl)piperazin-1-yl)methyl)-1-oxoisoindolin-2-yl)piperidine-2,6-dione]	500 to 1000	B (80%< substrate protein remaining %≤ 100%)	B (80%< substrate protein remaining %≤ 100%)	B (80%< substrate protein remaining %≤ 100%)	A (0% ≤ substrate protein remaining % ≤ 80%)	A (0% ≤ substrate protein remaining % ≤ 80%)	B (80%< substrate protein remaining %≤ 100%)
Cc1cc2c(N3CCN(Cc4ccc5c(c4)CN(C4CCC(=O)NC4=O)C5=O)CC3)ncnc2s1 (stereo not drawn) [GT-04680, 3-(5-((4-(6-methylthieno[2,3-d]pyrimidin-4-yl)piperazin-1-yl)methyl)-1-oxoisoindolin-2-yl)piperidine-2,6-dione]	500 to 1000	B (80%< substrate protein remaining %≤ 100%)	B (80%< substrate protein remaining %≤ 100%)	B (80%< substrate protein remaining %≤ 100%)	A (0% ≤ substrate protein remaining % ≤ 80%)	A (0% ≤ substrate protein remaining % ≤ 80%)	B (80%< substrate protein remaining %≤ 100%)
O=C1CCC(N2Cc3cc(CN4CCN(c5ncnc6ccsc56)CC4)ccc3C2=O)C(=O)N1 (stereo not drawn) [GT-04681, 3-(1-oxo-5-((4-(thieno[3,2-d]pyrimidin-4-yl)piperazin-1-yl)methyl)isoindolin-2-yl)piperidine-2,6-dione]	500 to 1000	B (80%< substrate protein remaining %≤ 100%)	B (80%< substrate protein remaining %≤ 100%)	B (80%< substrate protein remaining %≤ 100%)	A (0% ≤ substrate protein remaining % ≤ 80%)	A (0% ≤ substrate protein remaining % ≤ 80%)	B (80%< substrate protein remaining %≤ 100%)
O=C1CCC(N2Cc3cc(CN4CCN(c5nc(Cl)nc6ccsc56)CC4)ccc3C2=O)C(=O)N1 (stereo not drawn) [GT-04682, 3-(5-((4-(2-chlorothieno[3,2-d]pyrimidin-4-yl)piperazin-1-yl)methyl)-1-oxoisoindolin-2-yl)piperidine-2,6-dione]	500 to 1000	B (80%< substrate protein remaining %≤ 100%)	B (80%< substrate protein remaining %≤ 100%)	B (80%< substrate protein remaining %≤ 100%)	A (0% ≤ substrate protein remaining % ≤ 80%)	A (0% ≤ substrate protein remaining % ≤ 80%)	B (80%< substrate protein remaining %≤ 100%)
Cc1nc(N2CCN(Cc3ccc4c(c3)CN(C3CCC(=O)NC3=O)C4=O)CC2)c2ccsc2n1 (stereo not drawn) [GT-04693, 3-(5-((4-(2-methylthieno[2,3-d]pyrimidin-4-yl)piperazin-1-yl)methyl)-1-oxoisoindolin-2-yl)piperidine-2,6-dione]	< 500	B (80%< substrate protein remaining %≤ 100%)	A (0% ≤ substrate protein remaining % ≤ 80%)	A (0% ≤ substrate protein remaining % ≤ 80%)	B (80%< substrate protein remaining %≤ 100%)	A (0% ≤ substrate protein remaining % ≤ 80%)	A (0% ≤ substrate protein remaining % ≤ 80%)
O=C1CCC(N2Cc3cc(CN4CCN(c5nc6c(c(N7CCOCC7)n5)SCC6)CC4)ccc3C2=O)C(=O)N1 (stereo not drawn) [GT-04694, 3-(5-((4-(4-morpholino-6,7-dihydrothieno[3,2-d]pyrimidin-2-yl)piperazin-1-yl)methyl)-1-oxoisoindolin-2-yl)piperidine-2,6-dione]	< 500	B (80%< substrate protein remaining %≤ 100%)	A (0% ≤ substrate protein remaining % ≤ 80%)	A (0% ≤ substrate protein remaining % ≤ 80%)	B (80%< substrate protein remaining %≤ 100%)	A (0% ≤ substrate protein remaining % ≤ 80%)	A (0% ≤ substrate protein remaining % ≤ 80%)
